Experimental data reported in ChEMBL document CHEMBL1201862, “PubChem BioAssay data set” (2004).
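Method: 48-hour compound exposure of cells in 96-well plates, five concentrations, linear interpolation of endpoints. GI50 is the concentration that inhibits growth by half.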 Calls of active or inactive are those of the source. Rule as the data show it: active = GI50 up to about 1.1 µM and inactive = higher.

Experiments:
Test in all cases: NCI anticancer screen, dose series, 48 h
PC-3 = tested on: PC-3
786-0 = tested on: 786-0
OVCAR-8 = tested on: OVCAR-8
MDA-N = tested on: MDA-N
SF-268 = tested on: SF-268
SN12C = tested on: SN12C
COLO 205 = tested on: COLO 205
K562 = tested on: K562
A498 = tested on: A498
IGROV-1 = tested on: IGROV-1
MDA-MB-435 = tested on: MDA-MB-435
UACC-257 = tested on: UACC-257
UACC-62 = tested on: UACC-62
DU-145 = tested on: DU-145
SF-295 = tested on: SF-295
NCI-H460 = tested on: NCI-H460
MCF7 = tested on: MCF7
HT-29 = tested on: HT-29
LOX IMVI = tested on: LOX IMVI
HL-60 = tested on: HL-60

Measured: GI50

CC(C)C1=CC(=O)C(C)(C2C(O)CC3(C)C4CC=C5C(CCC(OC6OC(CO)C(O)C(O)C6OC6OC(C)C(O)C(O)C6O)C5(C)C)C4(C)C(=O)CC23C)O1 (stereo unspecified)
inactive: PC-3 > 100 µM | 786-0 > 100 µM | OVCAR-8 > 100 µM | MDA-N > 100 µM | SF-268 > 100 µM | SN12C > 100 µM | COLO 205 > 100 µM | K562 > 100 µM | A498 > 100 µM | IGROV-1 > 100 µM | MDA-MB-435 > 100 µM | UACC-257 > 100 µM | UACC-62 > 100 µM | DU-145 > 100 µM | SF-295 > 100 µM | NCI-H460 > 100 µM | MCF7 > 100 µM | HT-29 > 100 µM

Cc1ccc(/C=c2\c(=O)[nH]c3nc4ccccc4c(=O)n23)cc1
inactive: PC-3 55.5 µM | 786-0 39.4 µM | OVCAR-8 40.9 µM | LOX IMVI 29.1 µM | MDA-N 23.8 µM | SF-268 45.5 µM | SN12C 28.8 µM | COLO 205 18.3 µM | HL-60 29.2 µM | MDA-MB-435 24.9 µM | UACC-257 70 µM | UACC-62 33.5 µM | DU-145 53 µM | SF-295 73.1 µM | MCF7 39.8 µM

O=C1NNC2(C(=O)N1)c1ccccc1-c1ccccc12
inactive: PC-3 > 10 µM | 786-0 > 10 µM | OVCAR-8 > 10 µM | LOX IMVI > 10 µM | MDA-N > 10 µM | SF-268 > 10 µM | SN12C > 10 µM | COLO 205 > 10 µM | K562 > 10 µM | HL-60 > 10 µM | IGROV-1 > 10 µM | MDA-MB-435 > 10 µM | UACC-257 > 10 µM | UACC-62 > 10 µM | DU-145 > 10 µM | SF-295 > 10 µM | NCI-H460 > 10 µM | MCF7 > 10 µM | HT-29 > 10 µM

Cc1coc2c1[C@@H](O)[C@@]1(C)[C@H](CCC[C@@H]1C)C2
inactive: PC-3 36.5 µM | 786-0 34.8 µM | OVCAR-8 22.4 µM | LOX IMVI 43.4 µM | MDA-N 20.7 µM | SF-268 34.6 µM | SN12C 24.7 µM | COLO 205 22.6 µM | K562 26.9 µM | HL-60 23.7 µM | IGROV-1 54.6 µM | MDA-MB-435 15.1 µM | UACC-257 33 µM | UACC-62 56.2 µM | DU-145 37 µM | SF-295 45 µM | NCI-H460 45.5 µM | MCF7 > 100 µM | HT-29 42.8 µM

Cc1ccc(-c2nc3cc(Cl)ccc3[nH]2)cc1
inactive: PC-3 79.1 µM | 786-0 > 100 µM | OVCAR-8 > 100 µM | LOX IMVI > 100 µM | MDA-N 42.5 µM | SF-268 > 100 µM | SN12C > 100 µM | COLO 205 71.6 µM | K562 45.5 µM | HL-60 27 µM | IGROV-1 > 100 µM | MDA-MB-435 54.1 µM | UACC-257 > 100 µM | UACC-62 > 100 µM | DU-145 > 100 µM | SF-295 > 100 µM | NCI-H460 > 100 µM | MCF7 > 100 µM | HT-29 49 µM

Cc1cc2ccccc2n1CC(=O)NCC(C)C
inactive: PC-3 > 100 µM | 786-0 > 100 µM | OVCAR-8 > 100 µM | LOX IMVI > 100 µM | MDA-N > 100 µM | SF-268 > 100 µM | SN12C > 100 µM | COLO 205 > 100 µM | K562 > 100 µM | HL-60 > 100 µM | IGROV-1 > 100 µM | MDA-MB-435 > 100 µM | UACC-257 > 100 µM | UACC-62 > 100 µM | DU-145 > 100 µM | SF-295 > 100 µM | NCI-H460 > 100 µM | MCF7 > 100 µM | HT-29 > 100 µM

COc1cc(N(CCC#N)CCC#N)ccc1C(=N/NC(=O)c1cc(Br)ccc1O)/N=N/c1ccccc1
inactive: PC-3 25.5 µM | 786-0 29.1 µM | OVCAR-8 28.4 µM | LOX IMVI 25.8 µM | MDA-N 30.1 µM | SF-268 28.5 µM | SN12C 31.8 µM | COLO 205 16.3 µM | K562 19.4 µM | HL-60 13.9 µM | IGROV-1 13.8 µM | MDA-MB-435 36.6 µM | UACC-257 24.7 µM | UACC-62 20 µM | DU-145 27.9 µM | SF-295 31.6 µM | NCI-H460 22.6 µM | MCF7 18.9 µM | HT-29 24.9 µM

Cc1c(C)c2ccc(O)cc2[nH]c1=O
inactive: PC-3 > 100 µM | 786-0 > 100 µM | OVCAR-8 > 100 µM | LOX IMVI > 100 µM | MDA-N > 100 µM | SN12C > 100 µM | COLO 205 > 100 µM | K562 > 100 µM | A498 > 100 µM | IGROV-1 > 100 µM | MDA-MB-435 > 100 µM | UACC-257 > 100 µM | UACC-62 > 100 µM | DU-145 > 100 µM | SF-295 > 100 µM | NCI-H460 > 100 µM | MCF7 > 100 µM | HT-29 > 100 µM

CC(=O)C1C(=O)C(=O)N(c2ccc([N+](=O)[O-])cc2Cl)C1=O (stereo unspecified)
inactive: PC-3 82.2 µM | 786-0 > 100 µM | OVCAR-8 > 100 µM | LOX IMVI > 100 µM | MDA-N > 100 µM | SF-268 > 100 µM | SN12C > 100 µM | COLO 205 > 100 µM | HL-60 93.1 µM | IGROV-1 > 100 µM | MDA-MB-435 > 100 µM | UACC-257 > 100 µM | UACC-62 > 100 µM | DU-145 > 100 µM | SF-295 > 100 µM | NCI-H460 > 100 µM | MCF7 > 100 µM | HT-29 > 100 µM

O=C(O)C(Cc1c[nH]c2ccccc12)N1C(=O)c2ccccc2C1=O (stereo unspecified)
inactive: PC-3 > 100 µM | 786-0 > 100 µM | OVCAR-8 7.21 µM | LOX IMVI > 100 µM | MDA-N > 100 µM | SF-268 > 100 µM | SN12C > 100 µM | COLO 205 > 100 µM | A498 > 100 µM | IGROV-1 16.3 µM | MDA-MB-435 > 100 µM | UACC-257 > 100 µM | UACC-62 > 100 µM | DU-145 > 100 µM | SF-295 > 100 µM | NCI-H460 > 100 µM | MCF7 > 100 µM | HT-29 > 100 µM

COc1cccc(O)c1-c1cc(=O)c2c(O)c(OC)c(OC)c(OC)c2o1 [SKULLCAPFLAVONE II]
inactive: PC-3 15.3 µM | 786-0 42.6 µM | OVCAR-8 30.3 µM | LOX IMVI 30.2 µM | MDA-N 12.9 µM | SF-268 35.3 µM | SN12C 28 µM | COLO 205 16.5 µM | K562 14.5 µM | HL-60 20.4 µM | IGROV-1 24.2 µM | MDA-MB-435 10.3 µM | UACC-257 27 µM | UACC-62 14.7 µM | DU-145 16.4 µM | SF-295 21.1 µM | NCI-H460 19.1 µM | MCF7 27.3 µM | HT-29 6.5 µM
